In patent publication US10508109B2 (priority 2015, dated 2019):
Where two headings read alike, the source gives them in different places.

How the values were obtained:
[1] = system: A549; experiment: Cell-based assay, anti-proliferative activity (Cell Counting Kit-8, 72 hours); settings: Homo sapiens, read-out: IC50 (μM) A549
In short: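 After compound exposure of cells in 96-well plates, growth was measured colorimetrically and converted into IC50 values.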

[2] = system: CCD-18Co; experiment: as above; settings: Homo sapiens, read-out: IC50 (μM) CCD-18Co
In short: (§1)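 CCK-8 growth read-out at 72 h post compound exposure; 96-well seeding. IC50 from 8-point dilution (0–100 micro-M, twofold steps from 1.5625 micro-M).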

[3] = system: HCT-116; experiment: as above; settings: Homo sapiens, read-out: IC50 (μM) HCT-116
In short: as §1

[4] = system: HFL1; experiment: as above; settings: Homo sapiens, read-out: IC50 (μM) HFL1
In short: as §1

[5] = system: PC14; experiment: as above; settings: Homo sapiens, read-out: IC50 (μM) PC14
In short: as §1

[6] = target: SUV39H2 (Homo sapiens (Human), UniProt Q9H5I1); settings: read-out: IC50 (μM) Suv 39H2 assay; enzyme assay
[7] = A549 cells, 72 hours, Cell Counting Kit-8
[8] = CCD-18Co cells, 72 hours, Cell Counting Kit-8
[9] = HCT-116 cells, 72 hours, Cell Counting Kit-8
[10] = HFL1 cells, 72 hours, Cell Counting Kit-8
[11] = PC-14, PC14 cells, 72 hours, Cell Counting Kit-8

Chain of SUV39H2 (Q9H5I1 whole entry): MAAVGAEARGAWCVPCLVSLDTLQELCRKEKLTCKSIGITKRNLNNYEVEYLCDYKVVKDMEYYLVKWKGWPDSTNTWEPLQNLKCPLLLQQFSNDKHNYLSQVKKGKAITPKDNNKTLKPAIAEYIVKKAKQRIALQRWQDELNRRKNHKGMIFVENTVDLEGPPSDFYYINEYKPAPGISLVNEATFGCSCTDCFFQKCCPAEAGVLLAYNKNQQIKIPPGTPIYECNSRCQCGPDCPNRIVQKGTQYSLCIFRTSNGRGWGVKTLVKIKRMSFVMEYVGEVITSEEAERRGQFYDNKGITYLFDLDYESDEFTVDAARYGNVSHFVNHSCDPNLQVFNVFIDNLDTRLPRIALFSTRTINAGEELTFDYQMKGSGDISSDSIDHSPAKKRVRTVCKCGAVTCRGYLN

SMILES: COc1cc(OC)c(-c2cn3ccc(N4CCN(CCCC(=O)O)CC4)cc3n2)cc1Cl [Example 240, 4-(4-(2-(5-chloro-2,4-dimethoxyphenyl)imidazo[1,2-a]pyridine-7-yl)piperazin-1-yl)butanoic acid]
- IC50 [1, 7]: 10 µM
- IC50 [2, 8]: 10 µM
- IC50 [3, 9]: 10 µM
- IC50 [4, 10]: 10 µM
- IC50 [5, 11]: 10 µM
- IC50 [6]: 0.0063 µM

SMILES: COc1cc(OC)c(-c2cn3ccc(N4CCN(C(=O)C5CCCC5)CC4)cc3n2)cc1Cl [Example 241, (4-(2-(5-chloro-2,4-dimethoxyphenyl)imidazo[1,2-a]pyridine-7-yl)piperazin-1-yl)(cyclopentyl)methanone]
- IC50 [1, 7]: 2.3 µM
- IC50 [2, 8]: 2.5 µM
- IC50 [3, 9]: 2.4 µM
- IC50 [4, 10]: 1.5 µM
- IC50 [5, 11]: 1.6 µM
- IC50 [6]: 0.00768 µM

SMILES: COc1cc(OC)c(-c2cn3ccc(N4CCN(C(=O)C5CC5)CC4)nc3n2)cc1Cl [Example 242, (4-(2-(5-Chloro-2,4-dimethoxyphenyl)imidazo[1,2-a]pyrimidin-7-yl)-piperazin-1-yl)(cyclopropyl)methanone]
- IC50 [1, 7]: 10 µM
- IC50 [2, 8]: 10 µM
- IC50 [3, 9]: 10 µM
- IC50 [4, 10]: 10 µM
- IC50 [5, 11]: 6.3 µM
- IC50 [6]: 0.0154 µM

SMILES: COc1cc(OC)c(-c2cn3ccc(N4CCN(C(=O)C5CCCC5)CC4)nc3n2)cc1Cl [Example 243, (4-(2-(5-chloro-2,4-dimethoxyphenyl)imidazo[1,2-a]pyrimidin-7-yl)-piperazin-1-yl)(cyclopentyl)methanone]
- IC50 [1, 7]: 4.7 µM
- IC50 [2, 8]: 6.1 µM
- IC50 [3, 9]: 5.8 µM
- IC50 [4, 10]: 4.8 µM
- IC50 [5, 11]: 3.3 µM
- IC50 [6]: 0.0183 µM

SMILES: COc1cc(OC)c(-c2cn3ccc(NC(=O)[C@@H]4CCCN4)cc3n2)cc1Cl [Example 244, (S)—N-(2-(5-chloro-2,4-dimethoxyphenyl)imidazo[1,2-a]pyridin-7-yl)-pyrrolidine-2-carboxamide]
- IC50 [1, 7]: 10 µM
- IC50 [2, 8]: 8.8 µM
- IC50 [3, 9]: 10 µM
- IC50 [4, 10]: 9.8 µM
- IC50 [5, 11]: 5.2 µM
- IC50 [6]: 0.0533 µM

SMILES: COc1cc(OC)c(-c2cn3ccc(N4CCN(S(=O)(=O)C5CC5)C(COCCN(C)C)C4)cc3n2)cc1Cl (stereo not drawn) [Example 245, 2-((4-(2-(5-chloro-2,4-dimethoxyphenyl)imidazo[1,2-a]pyridin-7-yl)-1-(cyclopropylsulfonyl)piperazin-2-yl)methoxy)-N,N-dimethylethanamine]
- IC50 [1, 7]: 5.5 µM
- IC50 [2, 8]: 5 µM
- IC50 [3, 9]: 9.4 µM
- IC50 [4, 10]: 5.4 µM
- IC50 [5, 11]: 5.1 µM
- IC50 [6]: 0.00863 µM

SMILES: COc1cc(OC)c(-c2cn3ccc(-c4ccc(C(=O)O)cc4)cc3n2)cc1Cl [Example 246, 4-(2-(5-chloro-2,4-dimethoxyphenyl)imidazo[1,2-a]pyridin-7-yl)benzoic acid]
- IC50 [1, 7]: 10 µM
- IC50 [2, 8]: 10 µM
- IC50 [3, 9]: 10 µM
- IC50 [4, 10]: 10 µM
- IC50 [5, 11]: 10 µM
- IC50 [6]: 0.0143 µM

SMILES: COc1cc(OC)c(-c2cn3ccc(-c4ccc(C(=O)NCC5CCCN5)cc4)cc3n2)cc1Cl (stereo not drawn) [Example 248, 4-(2-(5-chloro-2,4-dimethoxyphenyl)imidazo[1,2-a]pyridin-7-yl)-N-(pyrrolidin-2-ylmethyl)benzamide]
- IC50 [1, 7]: 4.6 µM
- IC50 [2, 8]: 3.1 µM
- IC50 [3, 9]: 2.3 µM
- IC50 [4, 10]: 5.7 µM
- IC50 [5, 11]: 2.6 µM
- IC50 [6]: 0.0157 µM

SMILES: COc1cc(OC)c(-c2cn3ccc(NC(=O)[C@@H](N)Cc4c[nH]c5ccccc45)cc3n2)cc1Cl [Example 250, (S)-2-amino-N-(2-(5-chloro-2,4-dimethoxyphenyl)imidazo[1,2-a]pyridin-7-yl)-3-(1H-indol-3-yl)propanamide]
- IC50 ([1]; A549, 72 h): 6.6 µM
- IC50 ([2]; CCD-18Co, 72 h): 4 µM
- IC50 ([3]; HCT-116, 72 h): 6.9 µM
- IC50 ([4]; HFL1, 72 h): 3.6 µM
- IC50 ([5]; PC-14, 72 h): 4.2 µM
- IC50 [6]: 0.0427 µM

SMILES: COc1cc(OC)c(-c2cn3ccc(-c4ccc(C(=O)NCC5CCCNC5)cc4)cc3n2)cc1Cl (stereo not drawn) [Example 251, 4-(2-(5-chloro-2,4-dimethoxyphenyl)imidazo[1,2-a]pyridin-7-yl)-N-(piperidin-3-ylmethyl)benzamide]
- IC50 [1, 7]: 9.7 µM
- IC50 [2, 8]: 10 µM
- IC50 [3, 9]: 5.8 µM
- IC50 [4, 10]: 8.3 µM
- IC50 [5, 11]: 5.4 µM
- IC50 [6]: 0.0308 µM

SMILES: COc1cc(OC)c(-c2cn3ccc(NC(=O)[C@@H](N)C(C)C)cc3n2)cc1Cl [Example 252, (S)-2-amino-N-(2-(5-chloro-2,4-dimethoxyphenyl)imidazo[1,2-a]pyridin-7-yl)-3-methylbutanamide]
- IC50 ([1]; A549, 72 h): 7.8 µM
- IC50 ([2]; CCD-18Co, 72 h): 4.7 µM
- IC50 ([3]; HCT-116, 72 h): 5.4 µM
- IC50 ([4]; HFL1, 72 h): 5.9 µM
- IC50 ([5]; PC-14, 72 h): 6.3 µM
- IC50 [6]: 0.0423 µM

SMILES: COc1cc(OC)c(-c2cn3ccc(NC(=O)[C@H](C)NC(=O)OC(C)(C)C)cc3n2)cc1Cl [Example 253, (S)-tert-butyl (1-((2-(5-chloro-2,4-dimethoxyphenyl)imidazo[1,2-a]-pyridin-7-yl)amino)-1-oxopropan-2-yl)carbamate]
- IC50 [1, 7]: 10 µM
- IC50 [2, 8]: 6.7 µM
- IC50 [3, 9]: 10 µM
- IC50 [4, 10]: 6.5 µM
- IC50 [5, 11]: 6.9 µM
- IC50 [6]: 0.0582 µM

SMILES: COc1cc(OC)c(-c2cn3ccc(-c4ccc(C(=O)N5CCNCC5)cc4)cc3n2)cc1Cl [Example 254, (4-(2-(5-chloro-2,4-dimethoxyphenyl)imidazo[1,2-a]pyridin-7-yl)-phenyl)(piperazin-1-yl)methanone]
- IC50 [1, 7]: 2.7 µM
- IC50 [2, 8]: 3.1 µM
- IC50 [3, 9]: 2.6 µM
- IC50 [4, 10]: 2.8 µM
- IC50 [5, 11]: 0.99 µM
- IC50 [6]: 0.0383 µM

SMILES: COc1cc(OCSC)c(-c2cn3ccc(N4CCN(S(=O)(=O)C5CC5)CC4)cc3n2)cc1Cl [Example 255, 2-(5-chloro-4-methoxy-2-((methylthio)methoxy)phenyl)-7-(4-(cyclopropylsulfonyl)piperazin-1-yl)imidazo[1,2-a]pyridine]
- IC50 [1, 7]: 2.5 µM
- IC50 [2, 8]: 1.9 µM
- IC50 [3, 9]: 2.3 µM
- IC50 [4, 10]: 1.7 µM
- IC50 [5, 11]: 1.5 µM
- IC50 [6]: 0.00672 µM

SMILES: COc1cc(OC)c(-c2cn3ccc(-c4ccc(C(=O)NCC(O)CN)cc4)cc3n2)cc1Cl (stereo not drawn) [Example 256, N-(3-amino-2-hydroxypropyl)-4-(2-(5-chloro-2,4-dimethoxyphenyl)-imidazo[1,2-a]pyridin-7-yl)benzamide]
- IC50 [1, 7]: 10 µM
- IC50 [2, 8]: 10 µM
- IC50 [3, 9]: 10 µM
- IC50 [4, 10]: 10 µM
- IC50 [5, 11]: 10 µM
- IC50 [6]: 0.0217 µM

SMILES: CC[C@@H](C)[C@H](NC(=O)OC(C)(C)C)C(=O)Nc1ccn2cc(-c3cc(Cl)c(OC)cc3OC)nc2c1 [Example 257, tert-butyl ((2S,3R)-1-((2-(5-chloro-2,4-dimethoxyphenyl)imidazo[1,2-a]-pyridin-7-yl)amino)-3-methyl-1-oxopentan-2-yl)carbamate]
- IC50 [1, 7]: 5 µM
- IC50 [2, 8]: 5.1 µM
- IC50 [3, 9]: 5.5 µM
- IC50 [4, 10]: 5.2 µM
- IC50 [5, 11]: 3 µM
- IC50 [6]: 0.0435 µM

SMILES: CC[C@@H](C)[C@H](N)C(=O)Nc1ccn2cc(-c3cc(Cl)c(OC)cc3OC)nc2c1 [Example 258, (2S,3R)-2-amino-N-(2-(5-chloro-2,4-dimethoxyphenyl)imidazo[1,2-a]-pyridin-7-yl)-3-methylpentanamide]
- IC50 [1, 7]: 5.8 µM
- IC50 [2, 8]: 4.6 µM
- IC50 [3, 9]: 7.6 µM
- IC50 [4, 10]: 6.8 µM
- IC50 [5, 11]: 5.7 µM
- IC50 [6]: 0.0639 µM
